US5696140A, “N-cyano-N'-pyridylguanidines as serotonin antagonists” (Leo Pharmaceutical Products Ltd., priority 1992, dated 1997)

What was measured:
Yoshida sarcoma cells [1] = test: survival time of Yoshida tumour-bearing rats (LEW/Mol inbred female rats, oral); format: in vivo, rat; settings: untreated 7.5 days
Experimental: The prolongation of survival time of tumour-bearing rats was studied in LEW/Mol inbred female rats inoculated with Yoshida sarcoma cells (identical to the cells described above) in a number of 2×10^7 cells. Tumour-bearing rats were dosed orally once daily from day 3 after the transfer of tumour cells and until death or until the body-weights had increased by 10% as a consequence of tumour proliferation. The time for death of 50% of the animals was calculated by linear regression analysis.

Yoshida sarcoma cells [2] = test: inhibition of Yoshida sarcoma cell proliferation in vitro ([^3 H]thymidine incorporation, 24 h); format: cell-based; settings: Rattus norvegicus, read-out: Inhibition of tumour cell proliferation IC50
Experimental: (§1) The inhibition of tumour cell proliferation was studied using Yoshida sarcoma cells, originally derived from rat hepatic tumours induced by the carcinogen o-aminoazotoluene. The cells were cultured in vitro for 24 hours in the presence of the compound under investigation. DNA synthesis was measured by incorporation of [^3 H]thymidine, and the median inhibitory concentrations (IC50) of the compounds were calculated. The cytotoxicity of the compounds in normal lymphocytes was assessed by the dye exclusion method and expressed as the concentrations resulting in 50% viability (VC50).

[3] = cytotoxicity in normal lymphocytes, dye exclusion method; format: cell-based; settings: concentration resulting in 50% viability, read-out: Effect on viability of normal cells VC50
Experimental: as §1

[4] = tested on: human small cell lung carcinoma (NYH); test: inhibition of tumour cell proliferation in vitro, NYH; format: cell-based
[5] = tested on: human breast cancer (MCF-7); test: inhibition of tumour cell proliferation in vitro, MCF-7; format: cell-based; settings: MCF7
[6] = tested on: human small cell lung carcinoma (NYH); test: therapeutic antitumour effect in nude mice carrying a human small cell lung carcinoma (NYH); format: in vivo, human tumour in nude mice
Experimental: In addition the antitumour effect of the compounds of the present invention was determined in nude mice carrying a human small cell lung carcinoma (NYH).
Nude mice were inoculated subcutaneously with a 0.2 ml NYH cell suspension (5×10^7 cells/ml). Two weeks after inoculum animals were divided in treatment and control groups. All mice were dosed p.o. once daily according to group from day 14 to 28.

Q: With `Sc1ncnc2nc[nH]c12` [6-Mercaptopurine, reference compound] as the compound, how does the “Time to 50% of animals dead of cancer” value (Yoshida sarcoma cells [1]; 10 mg/kg p.o. once daily) read?
A: 12.2 days

Q: For `N#CN=C(NCCCCOc1ccccc1)Nc1ccncc1` [Example No. 14, N-Cyano-N'-(4-phenoxybutyl)-N"-4-pyridylquanidine], which IC50 (Yoshida sarcoma cells [2]) is on record?
A: 170 nM

Q: And the “Time to 50% of animals dead of cancer” value (Yoshida sarcoma cells [1]; 20 mg/kg p.o. once daily)?
A: 10.8 days

Q: What about the CC50 [3] of the same compound?
A: 100000 nM

Q: For `COc1ccccc1OCCCCCCNC(=NC#N)Nc1ccncc1` [Example No. 53, N-Cyano-N'-(6-o-methoxyphenoxyhexyl)-N"-4-pyridylquanidine], which IC50 [4] is on record?
A: 0.52 nM

Q: And the IC50 [5]?
A: 0.74 nM

Q: With `O=P1(N(CCCl)CCCl)NCCCO1` (stereo not drawn) [Cyclophosphamide, reference compound] as the compound, how does the “Time to 50% of animals dead of cancer” value (Yoshida sarcoma cells [1]; 0.3 mg/kg p.o. once daily) read?
A: 19.1 days

Q: What does the source list for `N#CN=C(NCCCCCCOc1ccccc1Cl)Nc1ccncc1` [Example No. 54, N-(6-o-Chlorophenoxyhexyl)-N'-cyano-N"-4-pyridylquanidine]?
A: IC50 [4]: 0.59 nM; IC50 [5]: 1.4 nM

Q: Which IC50 (Yoshida sarcoma cells [2]) does the source give for `N#CN=C(NCCCCCOc1ccccc1)Nc1ccncc1` [Example No. 18, N-Cyano-N'-(5-phenoxypentyl)-N"-4-pyridylquanidine] here?
A: 750 nM

Q: And the “Time to 50% of animals dead of cancer” value (Yoshida sarcoma cells [1]; 20 mg/kg p.o. once daily)?
A: 11.0 days

Q: And the CC50 [3]?
A: > 100000 nM

Q: Which results are given for `N#CNC(=NCCCCCCOc1cc(Cl)c(Cl)cc1Cl)Nc1ccncc1` [Example No. 52, N-Cyano-N'-4-pyridyl-N"-(6-(2,4,5-trichlorophenoxy)hexyl)guanidine]?
A: IC50 [4]: 1.4 nM; IC50 [5]: 4.3 nM

Q: For `N#CNC(=Nc1ccncc1)NCCCCCCCOc1ccccc1` [Example No. 33, N-Cyano-N'-(7-phenoxyheptyl)-N"-4-pyridylguanidine], which IC50 [4] is on record?
A: 0.58 nM

Q: What about the IC50 [5] of the same compound?
A: 6.2 nM

Q: For `N#CN=C(NCCCOc1ccccc1)Nc1ccncc1` [Example No. 5, N-Cyano-N'-(3-phenoxypropyl)-N"-4-pyridylquanidine], which IC50 (Yoshida sarcoma cells [2]) is on record?
A: 3300 nM

Q: And the “Time to 50% of animals dead of cancer” value (Yoshida sarcoma cells [1]; 10 mg/kg p.o. once daily)?
A: 12.0 days

Q: What about the “Time to 50% of animals dead of cancer” value (Yoshida sarcoma cells [1]; 20 mg/kg p.o. once daily) of the same compound?
A: 15.5 days

Q: And the “Time to 50% of animals dead of cancer” value (Yoshida sarcoma cells [1]; 50 mg/kg p.o. once daily)?
A: a (No rats had died on day 14. Calculation of 50% dead not possible.)

Q: And the “Time to 50% of animals dead of cancer” value (Yoshida sarcoma cells [1]; 100 mg/kg p.o. once daily)?
A: a (No rats had died on day 14. Calculation of 50% dead not possible.)

Q: What about the CC50 [3] of the same compound?
A: > 100000 nM

Q: Which IC50 [4] does the source give for `N#CN=C(NCCCCCCOc1ccc(Cl)cc1)Nc1ccncc1` [Example No. 43, N-(6-p-Chlorophenoxyhexyl)-N'-cyano-N"-4-pyridylquanidine] here?
A: 1.9 nM

Q: And the “tumour areas (range)” value ([6]; 25 mg/kg p.o. once daily day 14 to 28, day 11 (before dosing))?
A: 12-36 mm^2

Q: And the “tumour areas (range)” value ([6]; 25 mg/kg p.o. once daily day 14 to 28, day 14)?
A: 23-58 mm^2

Q: What about the “tumour areas (range)” value ([6]; 25 mg/kg p.o. once daily day 14 to 28, day 18, p < 0.05 vs untreated or vehicle) of the same compound?
A: 12-59 mm^2

Q: What about the “tumour areas (range)” value ([6]; 25 mg/kg p.o. once daily day 14 to 28, day 21, p < 0.05 vs untreated or vehicle) of the same compound?
A: 11-18 mm^2

Q: What about the “tumour areas (range)” value ([6]; 25 mg/kg p.o. once daily day 14 to 28, day 25, p < 0.05 vs untreated or vehicle) of the same compound?
A: 4-14 mm^2

Q: What about the “tumour areas (range)” value ([6]; 25 mg/kg p.o. once daily day 14 to 28, day 28, p < 0.05 vs untreated or vehicle) of the same compound?
A: 0--0 mm^2

Q: What about the Number of tumours ([6]; 25 mg/kg p.o., day 11 (before dosing)) of the same compound?
A: 6

Q: What about the Number of tumours ([6]; 25 mg/kg p.o., day 14) of the same compound?
A: 8

Q: What about the Number of tumours ([6]; 25 mg/kg p.o., day 18) of the same compound?
A: 8

Q: And the Number of tumours ([6]; 25 mg/kg p.o., day 21)?
A: 5

Q: And the Number of tumours ([6]; 25 mg/kg p.o., day 25)?
A: 3

Q: And the Number of tumours ([6]; 25 mg/kg p.o., day 28)?
A: 0

Q: What about the “tumour areas (range)” value ([6]; 50 mg/kg p.o. once daily day 14 to 28, day 11 (before dosing)) of the same compound?
A: 17-64 mm^2

Q: And the “tumour areas (range)” value ([6]; 50 mg/kg p.o. once daily day 14 to 28, day 14)?
A: 16-131 mm^2

Q: And the “tumour areas (range)” value ([6]; 50 mg/kg p.o. once daily day 14 to 28, day 18, p < 0.05 vs untreated or vehicle)?
A: 8-109 mm^2

Q: What about the “tumour areas (range)” value ([6]; 50 mg/kg p.o. once daily day 14 to 28, day 21, p < 0.05 vs untreated or vehicle) of the same compound?
A: 6-40 mm^2

Q: What about the “tumour areas (range)” value ([6]; 50 mg/kg p.o. once daily day 14 to 28, day 25, p < 0.05 vs untreated or vehicle) of the same compound?
A: 3-27 mm^2

Q: What about the “tumour areas (range)” value ([6]; 50 mg/kg p.o. once daily day 14 to 28, day 28, p < 0.05 vs untreated or vehicle) of the same compound?
A: 0--0 mm^2

Q: And the Number of tumours ([6]; 50 mg/kg p.o., day 11 (before dosing))?
A: 6

Q: And the Number of tumours ([6]; 50 mg/kg p.o., day 14)?
A: 10

Q: And the Number of tumours ([6]; 50 mg/kg p.o., day 18)?
A: 10

Q: And the Number of tumours ([6]; 50 mg/kg p.o., day 21)?
A: 5

Q: And the Number of tumours ([6]; 50 mg/kg p.o., day 25)?
A: 5

Q: And the Number of tumours ([6]; 50 mg/kg p.o., day 28)?
A: 0

Q: And the IC50 [5]?
A: 21 nM
